One series concerns the target T1, human Nox4 (Homo sapiens, UniProt Q9NPH5).
T1 construct: made in house; host or cells: transgenic Drosophila (Duox knockdown, Da-GAL4 driven UAS-hNOX4); membrane-enriched fly homogenate
T1 sequence (Q9NPH5 1-578): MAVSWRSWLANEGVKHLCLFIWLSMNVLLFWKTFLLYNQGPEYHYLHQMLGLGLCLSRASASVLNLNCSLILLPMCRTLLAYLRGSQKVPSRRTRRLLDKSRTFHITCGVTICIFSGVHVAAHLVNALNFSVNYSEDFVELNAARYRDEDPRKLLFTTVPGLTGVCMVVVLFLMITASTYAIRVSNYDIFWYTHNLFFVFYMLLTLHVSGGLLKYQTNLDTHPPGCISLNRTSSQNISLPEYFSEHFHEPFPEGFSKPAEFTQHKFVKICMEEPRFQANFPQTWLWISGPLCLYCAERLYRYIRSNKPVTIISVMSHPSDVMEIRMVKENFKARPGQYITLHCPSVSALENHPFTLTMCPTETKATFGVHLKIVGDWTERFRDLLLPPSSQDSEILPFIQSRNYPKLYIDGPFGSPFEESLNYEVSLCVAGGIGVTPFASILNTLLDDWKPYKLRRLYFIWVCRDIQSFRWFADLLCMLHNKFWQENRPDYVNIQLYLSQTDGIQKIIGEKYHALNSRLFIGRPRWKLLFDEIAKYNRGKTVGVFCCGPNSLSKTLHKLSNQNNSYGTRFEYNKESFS
Briefly: Nox inhibitor screening, Drosophila membranes over-expressing human Nox4, ROS chemiluminescence. The class given is biochemical. The settings on record: hNox4 Drosophila membranes.

The target in another series is xanthine oxidase (Bos taurus, UniProt P80457). Put plainly: Xanthine oxidase assay (lucigenin). The class given is biochemical. On the procedure: Xanthine oxidase activity was measured by lucigenin. Reaction mixtures contained 0.1 mU xanthine oxidase, 0.25 mM Xanthine, and 0.4 mM lucigenin with the indicated inhibitor (0–20 μM). Luminescence measured over 30 min at 37 °C with luminometor (DTX800, Beckman coulter).

Another series has as its target T2, human Nox1 (Homo sapiens, UniProt Q9Y5S8).
T2 construct: made in house; host or cells: transgenic Drosophila (Duox knockdown, Da-GAL4 driven UAS-hNOX1); membrane-enriched fly homogenate
T2 sequence (Q9Y5S8 1-564): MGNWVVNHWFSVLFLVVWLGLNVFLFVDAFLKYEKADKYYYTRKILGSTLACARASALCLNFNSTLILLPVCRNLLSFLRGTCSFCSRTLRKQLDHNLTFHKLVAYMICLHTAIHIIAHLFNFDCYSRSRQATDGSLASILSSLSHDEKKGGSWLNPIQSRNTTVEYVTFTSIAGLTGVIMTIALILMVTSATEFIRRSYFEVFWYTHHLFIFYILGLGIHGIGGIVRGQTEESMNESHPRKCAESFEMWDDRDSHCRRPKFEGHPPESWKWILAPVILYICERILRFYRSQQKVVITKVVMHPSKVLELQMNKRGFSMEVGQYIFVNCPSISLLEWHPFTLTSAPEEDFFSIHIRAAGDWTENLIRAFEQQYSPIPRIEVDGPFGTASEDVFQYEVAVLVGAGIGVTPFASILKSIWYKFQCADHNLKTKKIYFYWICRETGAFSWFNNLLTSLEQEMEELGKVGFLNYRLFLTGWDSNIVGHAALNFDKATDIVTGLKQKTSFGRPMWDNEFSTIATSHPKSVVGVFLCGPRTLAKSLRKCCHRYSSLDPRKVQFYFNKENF
Put plainly: Nox inhibitor screening, Drosophila membranes over-expressing human Nox1, ROS chemiluminescence. The class given is biochemical. The settings on record: hNox1 Drosophila membranes.

The nature of series [1]: Pharmacokinetics after IV and oral administration to rats. The class given is in vivo. As for the experimental part: Supplementary Table S1. Pharmacokinetic parameters of Ewha-89403 following IV and oral administration at the doses of 1 mg/kg and 10 mg/kg, respectively, to rats (n=4-5) PK Parameters IV Injection Oral Administration
Absolute Bioavailability (BA) = 4.3 %
Supplementary Table S2. Pharmacokinetic parameters of Ewha-18278 following IV and oral administration at the doses of 2 mg/kg and 20 mg/kg, respectively, to rats (n=5-6) […]
Absolute Bioavailability (BA) = 63.8 %

In a further series the target is T3, human Nox2 (Homo sapiens, UniProt P04839).
T3 construct: made in house; host or cells: transgenic Drosophila (Duox knockdown, Da-GAL4 driven UAS-hNOX2); membrane-enriched fly homogenate
T3 sequence (P04839 2-570 limits assumed): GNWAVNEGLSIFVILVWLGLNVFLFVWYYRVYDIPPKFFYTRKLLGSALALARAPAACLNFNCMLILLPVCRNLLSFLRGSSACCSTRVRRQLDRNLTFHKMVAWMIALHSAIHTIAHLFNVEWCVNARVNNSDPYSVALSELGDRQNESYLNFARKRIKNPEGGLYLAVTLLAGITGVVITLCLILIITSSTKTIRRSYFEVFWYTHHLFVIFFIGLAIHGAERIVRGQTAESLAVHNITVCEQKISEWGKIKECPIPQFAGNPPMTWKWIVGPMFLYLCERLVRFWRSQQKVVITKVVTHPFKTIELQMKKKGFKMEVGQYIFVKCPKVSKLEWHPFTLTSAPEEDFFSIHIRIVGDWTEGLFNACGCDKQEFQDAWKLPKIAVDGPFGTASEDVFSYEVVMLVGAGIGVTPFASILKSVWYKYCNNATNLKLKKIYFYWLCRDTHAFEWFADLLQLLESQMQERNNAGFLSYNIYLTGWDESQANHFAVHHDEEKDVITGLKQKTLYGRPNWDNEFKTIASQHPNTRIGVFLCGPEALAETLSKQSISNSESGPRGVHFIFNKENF
Briefly: Nox inhibitor screening, Drosophila membranes over-expressing human Nox2, ROS chemiluminescence. The class given is biochemical. The settings on record: hNox2 Drosophila membranes.

The target in another series is glucose oxidase (Aspergillus niger, UniProt P13006). Put plainly: Glucose oxidase assay (lucigenin). The class given is biochemical. On the procedure:
Glucose oxidase activity was measured by lucigenin. Reaction mixtures contained 0.75 mM glucose, 0.25 mg/ml glucose oxidase, and 0.4 mM lucigenin with the indicated inhibitor (0–20μM). Luminescence was measured over 30 min at 37 °C with luminometor (DTX800, Beckman coulter).

Here are results for 1 compound from paper PMC4792161, “A novel pyrazole derivative protects from ovariectomy-induced osteoporosis through the inhibition of NADPH oxidase” (Scientific Reports, 2016).

The Ki is the equilibrium dissociation constant of an inhibitor or competing ligand from its target. For orientation: AUC(0-inf) means total exposure, with the tail of the curve extrapolated. A low value points to low exposure. The term AUC(0-t) denotes the area under the concentration-time curve up to a stated or last time point. The low end stands for low exposure, the high end for high exposure. By half-life is commonly meant how long it takes for the measured level to halve. By bioavailability is commonly meant dose-corrected exposure relative to a reference, in per cent. Broadly, the Cmax is the maximum level reached in the sampled fluid or tissue. In general, Tmax refers to the time at which the peak concentration occurs.

Chain of glucose oxidase (P13006 17-605, species assumed): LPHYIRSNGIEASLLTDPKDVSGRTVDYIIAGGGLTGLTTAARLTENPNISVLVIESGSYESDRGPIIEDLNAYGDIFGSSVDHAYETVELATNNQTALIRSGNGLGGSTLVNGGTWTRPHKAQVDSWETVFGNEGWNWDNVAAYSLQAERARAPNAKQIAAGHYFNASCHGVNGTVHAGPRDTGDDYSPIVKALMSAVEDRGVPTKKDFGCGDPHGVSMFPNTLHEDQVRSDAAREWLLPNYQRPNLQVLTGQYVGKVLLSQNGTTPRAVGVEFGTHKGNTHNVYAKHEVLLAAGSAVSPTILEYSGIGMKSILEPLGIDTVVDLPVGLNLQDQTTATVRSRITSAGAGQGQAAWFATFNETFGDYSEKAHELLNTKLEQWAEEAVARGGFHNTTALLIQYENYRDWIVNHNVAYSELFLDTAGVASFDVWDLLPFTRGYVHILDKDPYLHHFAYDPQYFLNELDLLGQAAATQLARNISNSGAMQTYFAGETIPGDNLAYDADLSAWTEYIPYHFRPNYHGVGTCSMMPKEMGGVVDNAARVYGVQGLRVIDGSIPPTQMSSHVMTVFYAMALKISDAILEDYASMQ
Chain of xanthine oxidase (P80457 2-1332): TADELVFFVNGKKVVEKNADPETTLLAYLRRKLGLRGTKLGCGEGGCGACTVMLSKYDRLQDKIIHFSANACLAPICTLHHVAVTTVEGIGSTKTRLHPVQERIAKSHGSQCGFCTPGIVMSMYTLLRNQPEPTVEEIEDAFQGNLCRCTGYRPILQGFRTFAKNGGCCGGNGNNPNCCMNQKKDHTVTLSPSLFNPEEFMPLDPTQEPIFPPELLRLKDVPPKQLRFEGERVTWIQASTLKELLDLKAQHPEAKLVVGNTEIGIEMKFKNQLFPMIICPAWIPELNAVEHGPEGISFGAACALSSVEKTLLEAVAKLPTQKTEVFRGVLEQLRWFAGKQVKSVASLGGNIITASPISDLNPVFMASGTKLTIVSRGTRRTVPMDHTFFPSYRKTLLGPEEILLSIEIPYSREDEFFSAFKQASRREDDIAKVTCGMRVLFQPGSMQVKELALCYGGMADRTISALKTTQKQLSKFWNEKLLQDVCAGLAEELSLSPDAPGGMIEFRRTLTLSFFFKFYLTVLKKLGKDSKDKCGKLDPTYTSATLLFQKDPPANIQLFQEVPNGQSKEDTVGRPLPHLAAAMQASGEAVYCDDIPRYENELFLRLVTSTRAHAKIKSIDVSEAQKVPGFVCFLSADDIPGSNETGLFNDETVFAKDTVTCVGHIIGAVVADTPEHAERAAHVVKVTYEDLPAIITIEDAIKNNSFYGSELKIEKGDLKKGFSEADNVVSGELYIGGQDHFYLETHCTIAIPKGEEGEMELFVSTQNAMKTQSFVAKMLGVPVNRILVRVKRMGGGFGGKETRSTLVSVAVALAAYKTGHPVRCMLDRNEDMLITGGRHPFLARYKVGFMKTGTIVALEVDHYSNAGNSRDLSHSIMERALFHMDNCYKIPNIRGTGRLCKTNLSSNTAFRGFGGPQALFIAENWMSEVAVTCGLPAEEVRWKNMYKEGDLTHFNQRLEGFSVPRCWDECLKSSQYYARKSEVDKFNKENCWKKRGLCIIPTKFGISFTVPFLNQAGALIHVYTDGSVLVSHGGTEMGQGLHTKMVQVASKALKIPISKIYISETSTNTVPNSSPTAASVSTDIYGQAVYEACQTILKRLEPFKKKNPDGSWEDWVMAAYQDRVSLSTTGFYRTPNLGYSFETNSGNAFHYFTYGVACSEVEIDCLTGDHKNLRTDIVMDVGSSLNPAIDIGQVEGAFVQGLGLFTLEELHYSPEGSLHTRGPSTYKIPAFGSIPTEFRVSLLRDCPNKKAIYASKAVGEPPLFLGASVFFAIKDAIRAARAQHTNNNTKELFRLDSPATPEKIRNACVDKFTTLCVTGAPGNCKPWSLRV
Text for human Nox1: (§1) Purified Drosophila membranes expressing human Nox1, Nox2, or Nox4 were used to monitor ROS production by determining the oxidation of lucigenin, evident as chemiluminescence, in the absence or presence of chemical compound[18].
(§2) Drosophila membranes specifically overexpressing hNox1, hNox2, and hNox4 were subjected into ROS measurement with Diogene.
(§3) The genotypes used were human Nox1 (UAS-hNOX1/UAS-DUOX-RNAi; Da-GAL4/+), Nox2 (UAS-hNOX2/UAS-DUOX-RNAi; Da-GAL4/+) and Nox4 (UAS-hNOX4/UAS-DUOX-RNAi; Da-GAL4/+). Transgenic flies were homogenated with ice-cold PBS containing protease inhibitors and membrane-enriched human Nox1, 2, or 4 were harvested. Membranes containing human Nox1, 2, or 4 served to monitor ROS production by lucigenin chemiluminescence in the absence or presence of chemical compound[18].
Text for human Nox2: as §1, §2, §3
Text for human Nox4: as §1, §2, §3

In turn, `Oc1cc(-c2ccccc2)nn1-c1ccccn1` [Ewha-89403, 3-phenyl-1-(pyridin-2-yl)-1H-5-hydroxypyrazole] came in with a Ki at human Nox4 of 3120 nM. In addition, at xanthine oxidase, the “inhibitory activity on xanthine oxidase” value is “no inhibitory activities”. For the same compound, on human Nox1, the affinity corresponds to a Ki of 1450 nM. Moreover, in series [1] (IV 1 mg/kg), the Clt was 1277 ± 162.1 mL/h. In series [1] (rat, in vivo, IV 1 mg/kg), this compound registered an AUC(0-inf) of 418 ± 56 ng·h/mL, an AUC(0-t) of 343 ± 45 ng·h/mL, a C0 of 2520 ± 837 ng/mL and a Vd of 2.64 ± 1.41 L. In series [1] (rat, in vivo, IV 1 mg/kg), this compound had a half-life of 1.43 ± 0.723 h. Further, the bioavailability in series [1] (rat, in vivo, IV 1 mg/kg and oral 10 mg/kg, read-out: Absolute Bioavailability (BA)) was 4.3%. In series [1] (rat, in vivo, oral 10 mg/kg), the AUC(0-inf) turned out to be 302 ± 133 ng·h/mL, the AUC(0-t) was 149 ± 39 ng·h/mL, the peak level (Cmax) was 194 ± 54 ng/mL and the Tmax was 6.12 ± 2.34 min. This compound also showed a half-life in series [1] (rat, in vivo, oral 10 mg/kg) of 3.3 ± 2.08 h. Besides, the Ki at human Nox2 is 2570 nM. Also, the “inhibitory activity on glucose oxidase” value against glucose oxidase is recorded as “no inhibitory activities”.
